BindingDB's records for doi:10.1021/jm00126a016 (G. D. Searle, 1989)
pIC50: −log10 of the molar value.

Molecular target: Glutamate receptor ionotropic NMDA, PCP site (Rattus norvegicus)
Experiment: Inhibition of [3H]1-[1-(2-thienyl) piperidine ([3H]TCP) binding to phencyclidine receptor

Row | Structure (SMILES) | pIC50
1 | CN1CCc2ccccc2C1 | < 4.52
2 | CC1Cc2ccccc2C(C)N1 (stereo not drawn) | < 4.52
3 | c1ccc2c(c1)CCNC2c1ccc2ccccc2c1 (stereo not drawn) | < 4.52
4 | C=CCN1C(C)Cc2ccccc2C1C (stereo not drawn) | 5.27
5 | c1ccc(C2NCc3ccccc32)cc1 (stereo not drawn) | < 4.52
6 | CC(C)C1NCCc2ccccc21 (stereo not drawn) | 4.96
7 | Clc1ccc(C2NCCc3ccccc32)cc1 (stereo not drawn) | 5.28
8 | Fc1ccc(C2NCCc3ccccc32)cc1 (stereo not drawn) | 5.31
